Patent US9783859B2, “Method of screening and quantifying various enzymatic activities using artificial genetic circuits” (KOREA RESEARCH INSTITUTE OF BIOSCIENCE AND BIOTECHNOLOGY, priority 2009, dated 2017)
Read-outs that look alike come from different tables or passages of the source.

Key:
[1] = system: Pseudomonas sp. methyl parathion hydrolase (MPH); assay: sensing of methyl parathion hydrolase activity with pGESS-EGFP (III); format: cell-based; details: 0.1 mM substrate, GFP emission at 510 nm
Protocol: The cells were lysed, and the supernatant was analyzed with a fluorescence spectrometer (Varian, Australia), thereby examining whether the emission wavelength of GFP was detected at 510 nm.

[2] = system: phenol-sensing artificial genetic circuit pGESS-EGFP(I) (dmpR); details: solid medium, 30° C. 36 hours, fluorescence microscope
Protocol: In order to quantitatively analyze the function of the artificial genetic circuit (constructed in Example 1) to sense phenol, a single colony of recombinant E. coli BL21 containing pGESS-EGFP(I) was inoculated into LB liquid medium containing 50 μg/ml of ampicillin and was cultured with shaking overnight at 37° C.

[3] = system: phenol-sensing artificial genetic circuit pGESS-EGFP(I) (dmpR)
Protocol: The dependence of sensitivity of the artificial genetic circuit on the concentration of the inducer phenol was confirmed using a fluorescence spectrometer. For this purpose, a single colony of recombinant E. coli containing pGESS-EGFP(I) was inoculated into LB liquid medium supplemented with 50 μg/ml of ampicillin and was cultured with shaking overnight at 37° C. The above pre-culture was inoculated into LB liquid medium containing 50 μg/ml of ampicillin and various concentrations (0.1-1000 μM) of phenol to a concentration of 1% (v/v) and was cultured with shaking at 30° C. for 20 hours. To analyze the intensity of fluorescence, the cells were disrupted, and the intensity of fluorescence in the supernatant was analyzed using a fluorescence spectrometer.

[4] = system: genetic circuit pGESS-Cm(II)
Protocol: (§1) Next, the genetic circuits (pGESS-Cm(II), pGESS-Tc(II), and pGESS-Km(II)) comprising the antibiotic resistance gene as the reporter were used to perform quantitative antibiotic resistance analysis. A single colony of E. coli JM109(DE3) containing each genetic circuit comprising chloramphenicol, tetracycline or kanamycin resistance gene as a reporter was inoculated into liquid medium containing 50 μg/ml of ampicillin and was cultured with shaking overnight at 37° C. The pre-culture was 10^6-fold diluted, and 100 μl of the dilution was plated on each of selective media and cultured overnight at 37° C. for 3 days. The number of colonies produced on the solid medium was counted, thereby performing the resistance test. 50 μg/ml of ampicillin and various concentrations (0, 10, 20 and 30 μg/ml) of each of selective antibiotics (chloramphenicol, tetracycline and kanamycin resistance) were added to each selective medium. Also, a transcriptional activator, that is, phenol, was added at a concentration of 1-1000 μM.

[5] = system: genetic circuit pGESS-Km(II); details: phenol 1-1000 μM
Protocol: as §1

[6] = system: genetic circuit pGESS-Tc(II); details: phenol 1-1000 μM
Protocol: as §1

[7] = system: artificial genetic circuit pGESS-EGFP (I) (dmpR); format: cell-based, E. coli DH5α; details: 0.1-1000 μM tested, overnight at 30° C., LB medium
Protocol: The signals of the artificial genetic circuit for phenolic compounds were quantitatively analyzed. Specifically, a single colony of E. coli DH5α containing pGESS-EGFP (I) was inoculated into LB liquid medium containing 50 μg/ml of ampicillin and was cultured with shaking overnight at 37° C. The culture was inoculated into LB medium containing 50 μg/ml of ampicillin to a concentration of 1% (v/v), and 0.1-1000 μM of each of phenol, o-chlorophenol, m-chlorophenol, o-nitrophenol, catechol and resorcinol was added thereto and cultured with shaking overnight at 30° C. The cells were lysed, and the supernatant was analyzed by a fluorescence spectrometer (Varian, Australia), thereby measuring the fluorescence of GFP at 510 nm.

[8] = system: genetic circuit pGESS-EGFP (II)
Protocol: In the present invention, in order to increase the ability of the genetic circuit to sense phenolic compounds, the reaction of the genetic circuit was performed using the optimal medium and carbon source selected in Example 5, and the cell growth step and the step of activating (analyzing) the genetic circuit were separated from each other, thereby attempting the optimization of the sense system. Specifically, the bacterial cells were made healthy using LB medium during growth, and the cells were recovered and the activity of the genetic circuit therein was analyzed in the M9 medium containing acetate as a carbon source.
Specifically, a colony introduced with the genetic circuit was inoculated into LB medium and was cultured with shaking overnight at 37° C., and next day, the culture was inoculated into LB medium at a concentration of 1% (v/v) and was cultured with shaking at 37° C. When the cell growth (OD600/ml) reached about 2.5, the cultured cells were recovered and subjected to activation of the genetic circuit. For activation of the genetic circuit, the recovered bacterial cells were washed once with M9 medium, after they were suspended in M9 (acetate) media containing various concentrations of phenols and were cultured with shaking at 30° C. for 16 hours. Each medium was supplemented with 50 μg/ml of ampicillin as a selective marker. The intensity of fluorescence in cells induced by each concentration of phenol was measured using FACSAria system (Becton Dickinson, US). As a detector, an FSC, SSC, FL1-H (excitation=488 nm, emission=530/30 nm) detector was set, and data obtained by 50,000 sample cells were analyzed using FACSDiVa (Becton Dickinson, USA) (see FIG. 19 C).

[9] = system: genetic circuit pGESS-EGFP (III), mutant dmpR (E135K); format: cell-based, E. coli
Protocol: The colony introduced with the pGESS-EGFP (II) or pGESS-EGFP (III) genetic circuit was inoculated into LB medium and was cultured with shaking at 37° C. Next day, the culture was inoculated into LB medium to a concentration of 1% (v/v) and was cultured with shaking at 37° C. When the cell growth (OD600/ml) reached about 2.5, the cultured cells were recovered and subjected to activation of the genetic circuit. For activation of the genetic circuit, the recovered bacterial cells were washed once with M9 medium, after which they were suspended in M9 (acetate) media containing various concentrations of phenol and were cultured with shaking. Each medium was supplemented with 50 μg/ml of ampicillin as a selection marker. The bacterial cell growth was predicted by measuring absorbance (OD600) using a UV/VIS spectrometer (Ultrospec 3000, Pharmacia Biotech, Sweden), and the fluorescence intensity was measured using a fluorescence plate reader (Multi-label reader, PerkinElmer, USA).
Next, the measurement of sensitivities to 2-nitrophenol and 4-nitrophenol was performed. The measurement was performed in the same manner as above, and various concentrations of 2-nitrophenol and 4-nitrophenol in addition to phenol were added and allowed to react.

[10] = biological target: T1, C. freundii tyrosine-phenol lyase (TPL) (Citrobacter freundii, UniProt P31013); assay: sensing of tyrosine-phenol lyase activity with pGESS-EGFP (I); format: cell-based; details: 1 mM tyrosine, 10 μM PLP, 30° C. 20 hours
T1 construct: expressed in transfected cells; host or cells: E. coli DH5α containing pGESS-EGFP (I), plasmid pEC-TPL
From the text: The GESS genetic circuit of the present invention can also be used to sense a reaction (phenol-lyase) of liberating phenol from substrates (Ph-C—(R)) comprising carbon coupled to phenol. In the present invention, whether the GESS genetic circuit senses the activity of TPL (enzyme degrading tyrosine into phenol, pyruvic acid and ammonia) was examined in order to verify the effectiveness of TPL. Specifically, C. freundii TPL gene was cloned into pEC11a (obtained by replacing the on of pET11a(+) with ACYC ori) to prepare pEC-TPL which was then introduced into E. coli DH5α containing pGESS-EGFP (I).

[11] = enzymatic properties of novel alkaline phosphatase (pNPP hydrolysis, absorbance at 405 nm); format: biochemical; details: 15 minutes, at 80° C. or below
Protocol: The optimum pH and temperature, thermal stability and substrate specificity of the selected alkaline phosphatase and the effect thereof on metal ions were examined. An enzymatic reaction was performed in the following manner. The enzymatic reaction was performed using a mixture of 50 mM diethanolamine, DEA (pH 9.0) buffer, 0.5 mM para-nitrophenylphosphate (pNPP) and the enzyme at 37° C. for 5 minutes. The same amount of 1M NaOH was added to stop the enzymatic reaction, and the amount of nitrophenol produced by the enzymatic reaction was measured. the measurement was performed by measuring the absorbance at 405 nm using a fluorescence plate reader (Victor5, Perkin-Elmer, USA). 1 unit was defined as the amount of enzyme that can produce 1 μmol of para-nitrophenol per minute at 37° C.
In order to examine the optimum pH of the novel alkaline phosphatase, the activities thereof at a pH of 7.0 to 10.5 were compared. At a pH of 7.0 to 8.5, 50 mM Tris-HCl buffer was used, and at a pH of 7.5 to 10.5, 50 mM DEA buffer was used.
In addition, the activities of the enzyme at various temperatures were compared. […] (see FIG. 25B). In addition, in order to examine the thermal inactivation of the enzyme, the enzyme was allowed to stand at various temperatures for 15 minutes, and then the remaining enzymatic activity was measured. […]

T1 sequence (P31013 whole entry): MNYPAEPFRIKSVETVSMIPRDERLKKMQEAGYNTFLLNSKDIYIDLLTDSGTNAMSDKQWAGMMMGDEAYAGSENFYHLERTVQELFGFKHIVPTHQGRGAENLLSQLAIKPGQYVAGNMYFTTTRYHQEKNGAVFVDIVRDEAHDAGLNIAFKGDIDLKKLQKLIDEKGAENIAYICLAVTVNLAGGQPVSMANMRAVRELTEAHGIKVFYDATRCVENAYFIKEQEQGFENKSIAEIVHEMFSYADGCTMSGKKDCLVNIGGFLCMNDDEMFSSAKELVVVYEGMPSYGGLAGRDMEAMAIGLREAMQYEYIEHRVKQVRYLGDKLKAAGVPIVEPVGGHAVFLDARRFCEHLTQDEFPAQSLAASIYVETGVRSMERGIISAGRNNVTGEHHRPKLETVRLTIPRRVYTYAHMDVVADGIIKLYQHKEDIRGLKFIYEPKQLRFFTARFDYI

COP(=S)(OC)Oc1ccc([N+](=O)[O-])cc1 [methyl parathion]
fluorescence in the presence of MPH [1]: strong fluorescence was observed

Oc1ccccc1 [phenol]
phenol concentration at which colony fluorescence was observed [2]: more than 1 μM | phenol concentration at which a clear fluorescent signal was observed ([3]; LB liquid medium, 30° C. 20 hours, fluorescence spectrometer): ≥ 10 µM | phenol concentration range in which the genetic circuit is quantitatively activated ([3]; pGESS-EGFP(I)): 1 to 1000 µM | resistance to chloramphenicol ([4]; phenol concentration 100 μM): 40 µg/mL | resistance to chloramphenicol ([4]; phenol concentration 1 mM): 50 µg/mL | resistance to chloramphenicol ([4]; phenol concentration of 10 μM): ≤ 20 µg/mL | phenol-dependent kanamycin resistance (colony formation) [5]: the formation of colonies was not sensed | phenol-dependent tetracycline resistance (colony formation) [6]: quantitative results similar to those in the case of chloramphenicol | concentration from which fluorescence started to be sensed [7]: 1 µM | increase of reaction value ([8]; 2-step activity analysis): about 5 times | sensitivity relative to the previous sensitivity ([8]; 2-step activity analysis): about 10 times | concentration range of phenol which could be quantitatively analyzed ([8]; 2-step activity analysis, M9 (acetate)): 1 to 10 µM | phenol concentration that could be sensed by 2-step activity analysis ([8]; M9 (acetate), 30° C. 16 hours): at least 1 μM | sensitivity relative to wild dmpR ([9]; mutant dmpR vs wild dmpR (pGESS-EGFP (II))): about 10 times | relative sensitivity among phenol, 4-nitrophenol and 2-nitrophenol ([9]; pGESS-EGFP (III)): highest | concentration range which could be quantitatively sensed ([9]; pGESS-EGFP (III), mutant dmpR, M9 (acetate)): 0.1 to 10 µM

N[C@@H](Cc1ccc(O)cc1)C(=O)O [tyrosine]
intensity of fluorescence in the cell lysis due to TPL activity [10]: significantly increased

alkaline phosphatase (BAP) from E. coli: alkaline phosphatase (BAP) from E. coli
thermal inactivation [11]: not inactivated
